The results in this text go back to ChEMBL document CHEMBL3045998, “QSAR analysis of 2-benzoxazolyl hydrazone derivatives for anticancer activity and its possible target prediction” (Med Chem Res, 2012).

SMILES strings stand for the structures. Some results are limits rather than exact numbers.

Assay type in all cases: functional, cell-based
One assay deals with CCRF-CEM. The assay is described as follows: Cytotoxicity against Homo sapiens (human) CCRF-CEM cells assessed as growth inhibition.
The nature of assay [1]: Cytotoxicity against Homo sapiens (human) Burkitt lymphoma cells assessed as growth inhibition.
In the next assay the test system is HeLa. The assay is described as follows: Cytotoxicity against Homo sapiens (human) HeLa cells assessed as growth inhibition.

As to `C/C(=N\Nc1nc2ccccc2o1)c1nccnc1C`, the IC50 in the assay with CCRF-CEM was 129 nM; in assay [1] (read-out: IC50) it was 900 nM; in assay [1] (read-out: pIC50 (converted)) it was 891 nM; in the assay on HeLa, 186 nM.

On to `C/C(=N\Nc1nc2ccccc2o1)c1cnc(C)cn1`, for which the IC50 in assay [1] (read-out: IC50) was 150 nM; in assay [1] (read-out: pIC50 (converted)), 151 nM.

On to `CC/C(=N\Nc1nc2ccccc2o1)c1ccccn1`, for which the results for the IC50 (in assay [1] (read-out: IC50); in assay [1] (read-out: pIC50 (converted)); in the assay on HeLa) were 2 nM, 2 nM and 51.3 nM, respectively.

Turning to `C/C(=N\Nc1nc2ccccc2o1)c1cccc[n+]1[O-]`, the IC50 in assay [1] (read-out: IC50) is 27 nM; in assay [1] (read-out: pIC50 (converted)), 26.9 nM.

For the compound `c1ccc(C(=NNc2nc3ccccc3o2)c2ccccn2)nc1`, the IC50 in assay [1] (read-out: IC50) and in assay [1] (read-out: pIC50 (converted)) was 12 nM in each case.

In the case of `c1ccc(/C(=N/Nc2nc3ccccc3o2)C2CC2)nc1`, the IC50 was 185 nM in assay [1] (read-out: IC50) and 186 nM in assay [1] (read-out: pIC50 (converted)).

`C/C(=N\Nc1nc2ccccc2o1)c1ccc2ccccc2n1`: the figures for the IC50 in assay [1] (read-out: IC50) and in assay [1] (read-out: pIC50 (converted)) were 5490 nM and 5500 nM, respectively.

Turning to `C(=N\Nc1nc2ccccc2o1)/c1ccccn1`, the values for the IC50 in assay [1] (read-out: IC50) and in assay [1] (read-out: pIC50 (converted)) were 5 nM and 5.01 nM, respectively.

On to `C/C(=N\Nc1nc2ccccc2o1)c1ccncn1`, for which the IC50 in assay [1] (read-out: IC50) is 144 nM; in assay [1] (read-out: pIC50 (converted)), 145 nM.

In the case of `C/C(=N\N(C)c1nc2ccccc2o1)c1ccccn1`, the IC50 in assay [1] (read-out: IC50) is over 50000 nM.

Take `C/C(=N\Nc1nc2ccccc2o1)c1ncccn1`: the IC50 in assay [1] (read-out: IC50) is 30 nM; in assay [1] (read-out: pIC50 (converted)), 30.2 nM.

As for `C/C(=N\Nc1nc2ccccc2o1)c1nccc2ccccc12`, the IC50 in assay [1] (read-out: IC50) and in assay [1] (read-out: pIC50 (converted)) was 200 nM each time.

For `CC(C)(C)/C(=N\Nc1nc2ccccc2o1)c1ccccn1`, in assay [1] (read-out: IC50), the IC50 was over 10000 nM.

For `C/C(=N\Nc1nc2ccccc2o1)c1ccc(C)nn1`, the IC50 in assay [1] (read-out: IC50) is 6270 nM; in assay [1] (read-out: pIC50 (converted)) it was 6310 nM.

Regarding `C/C(=N\Nc1nc2ccccc2o1)c1cccnc1`, in assay [1] (read-out: IC50), the IC50 is over 100000 nM.

`CCC/C(=N\Nc1nc2ccccc2o1)c1ccccn1`: the IC50 is 6 nM in assay [1] (read-out: IC50) and 6.03 nM in assay [1] (read-out: pIC50 (converted)).

For the compound `c1ccc(C/C(=N\Nc2nc3ccccc3o2)c2ccccn2)cc1`, the IC50 in assay [1] (read-out: IC50) was over 10000 nM.

For the compound `C/C(=N\Nc1nc2ccccc2o1)c1cc(C)ncn1`, the IC50 in assay [1] (read-out: IC50) is 42 nM; in assay [1] (read-out: pIC50 (converted)), 41.7 nM.

Regarding `CC(C)/C(=N\Nc1nc2ccccc2o1)c1ccccn1`, the results for the IC50 in assay [1] (read-out: IC50) and in assay [1] (read-out: pIC50 (converted)) were 14 nM and 14.1 nM, respectively.

For `C/C(=N\Nc1nc2ccccc2o1)c1ccccn1`, the IC50 was 9 nM in assay [1] (read-out: IC50) and 8.91 nM in assay [1] (read-out: pIC50 (converted)).

As to `C/C(=N\Nc1nc2ccccc2o1)c1cc2ccccc2cn1`, the IC50 is 30 nM in assay [1] (read-out: IC50) and 30.2 nM in assay [1] (read-out: pIC50 (converted)).

Regarding `c1ccc(/C(=N\Nc2nc3ccccc3o2)c2ccccn2)cc1`, the IC50 in assay [1] (read-out: IC50) and in assay [1] (read-out: pIC50 (converted)) was 120 nM throughout.

As for `C/C(=N\Nc1nc2ccccc2o1)c1cccnn1`, the IC50 in assay [1] (read-out: IC50) is 1300 nM; in assay [1] (read-out: pIC50 (converted)) it was 1290 nM.
